# Values quoted from earlier work as cited in patent US4801594A, “Aromatase inhibitors” (Eli Lilly and Company, priority 1984, dated 1989).
# Test system: breast cancer
# Settings: known aromatase inhibitors; see Cancer Research, Vol. 42, Suppl. 8: 3261s (1982)
smiles,measurement,value
C[C@]12C=CC(=O)C=C1CC[C@@H]1[C@@H]2CC[C@]2(C)OC(=O)CC[C@@H]12 [testolactone],effect in treatment of breast cancer,beneficial effect
CCC1(c2ccc(N)cc2)CCC(=O)NC1=O (centres unmarked) [aminoglutethimide],effect in treatment of breast cancer,beneficial effect
